Measurements as given in patent US5420335A, “Parenteral nutrients based on watersoluble glycerol bisacetoacetates” (priority 1993, dated 1995).
“And” between values parts separate entries of the source, which are not always exact repeats. Identical values can stand only once.

Columns and labels:
Type in all cases: in vivo, rat (male Sprague-Dawley)
[1] = Oral dietary nitrogen (food) intake of intravenously infused rats; details: for Dietary Nitrogen Intake: Table 1, Example 2
Protocol: (§1) Water was available ad libitum at all times.
(§2) The vein was then ligated dorsally to the catheter. […] Body weights were measured daily.
(§3) Infusate volume, oral food intake, body weight and urinary volume and total nitrogen were monitored daily for each rat. Infusate volume and food intake were determined by weighing the appropriate container at the start and end of each 24 hr. period. Measurements were recorded between 9 and 10 AM each day. At the end of the 7th day, rats were sacrificed, and blood and liver were harvested. Plasma was separated for measurement of free fatty acids, glucose, and ketone bodies. Liver was weighed and a sample was fixed in buffered formalin for gross histology.
(§4) The data were analyzed for significance by the one-way analysis of variance with repeated measures and comparing the effect of dietary treatment on each day. […] The null hypothesis was concluded invalid if p≤0.05. The analysis of variance was computed on a SAS statistical package.
(§5) This compound has an estimated energy density of 4.86 kcal/gram based on thermodynamic data from similar compounds.

[2] = Daily urinary nitrogen losses of intravenously infused rats
Protocol: as §1, §2, §3
The data were analyzed for significance by the one-way analysis of variance with repeated measures and comparing the effect of dietary treatment on each day. […] The null hypothesis was concluded invalid if p≤0.05. The analysis of variance was computed on a SAS statistical package. […]

[3] = Nitrogen balance (difference between intake and urinary output); details: for Nitrogen Balance, Difference Between Intake and Output: Table 3, Example 2
Protocol: as §1, §2, §3, §4
FIG. 3 illustrates the difference between oral intake and urinary nitrogen output which is termed nitrogen balance. It is representative of nitrogen balance because urinary nitrogen is the major route for body loss of nitrogen.
The experimental compound contains 8% nitrogen. With an infusion of 5.6 grams/day, infused nitrogen would provide approximately 450 mg more than that listed in the data tables. The final balance figures includes this number which is calculated based on the actual daily infusion rate for each rat.

[4] = Daily body weight of intravenously infused rats; details: Table 4, Example 2
Protocol: as §1, §2, §3, §4, §5

Compound: OC[C@H]1OC(O)[C@H](O)[C@@H](O)[C@@H]1O (some centres unmarked) [Glucose, glucose, reference compound]
- Dietary Nitrogen Intake ([1]; day 1, individual rat): 111.86 MG N and 164.5 MG N and 486.92 MG N and 269.78 MG N
- Dietary Nitrogen Intake ([1]; day 2, individual rat): 217.14 MG N and 85.54 MG N and 427.7 MG N and 144.76 MG N and 493.5 MG N and 526.4 MG N
- Dietary Nitrogen Intake ([1]; day 3, individual rat): 151.34 MG N and 118.44 MG N and 559.3 MG N and 52.64 MG N and 250.04 MG N and 276.36 MG N and 631.68 MG N
- Dietary Nitrogen Intake ([1]; day 4, individual rat): 131.6 MG N and 118.44 MG N and 572.46 MG N and 98.7 MG N and 394.8 MG N and 414.54 MG N and 526.4 MG N
- Dietary Nitrogen Intake ([1]; day 5, individual rat): 236.88 MG N and 230.3 MG N and 407.96 MG N and 157.92 MG N and 223.72 MG N and 217.14 MG N and 559.3 MG N
- Dietary Nitrogen Intake ([1]; day 6, average of 7 rats): 303 MG N
- Dietary Nitrogen Intake ([1]; day 6, individual rat): 118.44 MG N and 105.28 MG N and 243.46 MG N and 342.16 MG N and 289.52 MG N and 375.06 MG N and 644.84 MG N
- Dietary Nitrogen Intake ([1]; day 7, individual rat): 177.66 MG N and 157.92 MG N and 269.78 MG N and 526.4 MG N and 210.56 MG N and 473.76 MG N and 664.58 MG N
- appetite depression ([1]; in words, Example 4): glucose induced better appetite depression than did the experimental compound
- differences in dietary nitrogen intake among the three groups ([1]; in words, vs saline and other groups, 7 days): no differences in dietary nitrogen intake among the three groups
- Urinary Nitrogen ([2]; Table 2, Example 2, day 1, average of 7 rats): 144 mg
- Urinary Nitrogen ([2]; Table 2, Example 2, day 1, individual rat): 164.08 mg and 92.04 mg and 219.2 mg and 80.25 mg and 78.51 mg and 282.44 mg and 88.28 mg
- Urinary Nitrogen ([2]; Table 2, Example 2, day 2, average of 7 rats): 146 mg
- Urinary Nitrogen ([2]; Table 2, Example 2, day 2, individual rat): 131.95 mg and 74.58 mg and 311.7 mg and 147.44 mg and 42.51 mg and 224.09 mg and 88.37 mg
- Urinary Nitrogen ([2]; Table 2, Example 2, day 3, average of 7 rats): 203 mg
- Urinary Nitrogen ([2]; Table 2, Example 2, day 3, individual rat): 58.42 mg and 94.88 mg and 599.66 mg and 115.01 mg and 145.05 mg and 174.3 mg and 236.92 mg
- Urinary Nitrogen ([2]; Table 2, Example 2, day 4, average of 7 rats): 129 mg
- Urinary Nitrogen ([2]; Table 2, Example 2, day 4, individual rat): 109.72 mg and 80.52 mg and 274.22 mg and 93.31 mg and 78.6 mg and 145.43 mg and 124.12 mg
- Urinary Nitrogen ([2]; Table 2, Example 2, day 5, average of 7 rats): 177 mg
- Urinary Nitrogen ([2]; Table 2, Example 2, day 5, individual rat): 111.02 mg and 125.89 mg and 316.17 mg and 84.8 mg and 224.34 mg and 241.17 mg and 137.97 mg
- Urinary Nitrogen ([2]; Table 2, Example 2, day 6, average of 7 rats): 178 mg
- Urinary Nitrogen ([2]; Table 2, Example 2, day 6, individual rat): 114.67 mg and 65.54 mg and 227.23 mg and 135.24 mg and 118.95 mg and 333.85 mg and 252.42 mg
- Urinary Nitrogen ([2]; Table 2, Example 2, day 7, average of 7 rats): 218 mg
- Urinary Nitrogen ([2]; Table 2, Example 2, day 7, individual rat): 71.89 mg and 105.54 mg and 474.91 mg and 159.89 mg and 124.66 mg and 267 mg and 319.39 mg
- Urinary Nitrogen ([2]; Table 8, Example 4, day 1, average of 9 rats): 128 mg
- Urinary Nitrogen ([2]; Table 8, Example 4, day 1, individual rat): 252 mg and 114.8 mg and 82.1 mg and 75.4 mg and 22.4 mg and 158.4 mg and 133.9 mg and 148.3 mg and 164.3 mg
- Urinary Nitrogen ([2]; Table 8, Example 4, day 2, average of 9 rats): 135 mg
- Urinary Nitrogen ([2]; Table 8, Example 4, day 2, individual rat): 266.4 mg and 153.9 mg and 105 mg and 57 mg and 91.8 mg and 159.8 mg and 111 mg and 108.9 mg and 158 mg
- Urinary Nitrogen ([2]; Table 8, Example 4, day 3, average of 9 rats): 106 mg
- Urinary Nitrogen ([2]; Table 8, Example 4, day 3, individual rat): 151 mg and 89.1 mg and 107.2 mg and 68.4 mg and 118.3 mg and 131.9 mg and 135.4 mg and 59.8 mg and 91.8 mg
- Urinary Nitrogen ([2]; Table 8, Example 4, day 4, average of 9 rats): 125 mg
- Urinary Nitrogen ([2]; Table 8, Example 4, day 4, individual rat): 127.2 mg and 92.7 mg and 114.8 mg and 44.5 mg and 73.8 mg and 165.9 mg and 168.7 mg and 93.6 mg and 240.1 mg
- Urinary Nitrogen ([2]; Table 8, Example 4, day 5, average of 9 rats): 131 mg
- Urinary Nitrogen ([2]; Table 8, Example 4, day 5, individual rat): 127.8 mg and 97.7 mg and 93.7 mg and 45.9 mg and 84.8 mg and 236.3 mg and 166.4 mg and 123.4 mg and 203.2 mg
- Urinary Nitrogen ([2]; Table 8, Example 4, day 6, average of 9 rats): 172 mg
- Urinary Nitrogen ([2]; Table 8, Example 4, day 6, individual rat): 256.3 mg and 104.9 mg and 133.7 mg and 72.7 mg and 138.3 mg and 307.5 mg and 146.9 mg and 169.4 mg and 215.2 mg
- Urinary Nitrogen ([2]; Table 8, Example 4, day 7, average of 9 rats): 162 mg
- Urinary Nitrogen ([2]; Table 8, Example 4, day 7, individual rat): 118.3 mg and 106.6 mg and 175.8 mg and 22.6 mg and 145.6 mg and 384.8 mg and 126.8 mg and 162.4 mg and 212.8 mg
- urinary nitrogen losses ([2]; in words, 7 days): Saline infused rats also lost more nitrogen in the urine than did glucose infused rats
- nitrogen balance ([3]; Example 2, 7 days): around +100 mg/day
- nitrogen balance ([3]; Example 4, infused nitrogen considered (FIG. 8)): over 200 mg/day
- Nitrogen Balance, Difference Between Intake and Output ([3]; day 1, average of 7 rats): 59 MG N
- Nitrogen Balance, Difference Between Intake and Output ([3]; day 1, individual rat): -52.22 MG N and 72.46 MG N and -54.7 MG N and 31.61 MG N and 33.35 MG N and 204.48 MG N and 181.5 MG N
- Nitrogen Balance, Difference Between Intake and Output ([3]; day 2, average of 7 rats): 156 MG N
- Nitrogen Balance, Difference Between Intake and Output ([3]; day 2, individual rat): 85.19 MG N and 10.96 MG N and 116 MG N and 69.7 MG N and 102.25 MG N and 269.41 MG N and 438.03 MG N
- Nitrogen Balance, Difference Between Intake and Output ([3]; day 3, average of 7 rats): 88 MG N
- Nitrogen Balance, Difference Between Intake and Output ([3]; day 3, individual rat): 92.92 MG N and 23.56 MG N and -40.36 MG N and -62.37 MG N and 104.99 MG N and 102.06 MG N and 394.76 MG N
- Nitrogen Balance, Difference Between Intake and Output ([3]; day 4, average of 7 rats): 193 MG N
- Nitrogen Balance, Difference Between Intake and Output ([3]; day 4, individual rat): 21.88 MG N and 37.92 MG N and 298.24 MG N and 5.39 MG N and 316.2 MG N and 269.11 MG N and 402.28 MG N
- Nitrogen Balance, Difference Between Intake and Output ([3]; day 5, average of 7 rats): 113 MG N
- Nitrogen Balance, Difference Between Intake and Output ([3]; day 5, individual rat): 125.86 MG N and 104.41 MG N and 91.79 MG N and 73.12 MG N and -0.62 MG N and -24.03 MG N and 421.33 MG N
- Nitrogen Balance, Difference Between Intake and Output ([3]; day 6, average of 7 rats): 124 MG N
- Nitrogen Balance, Difference Between Intake and Output ([3]; day 6, individual rat): 3.77 MG N and 39.74 MG N and 16.23 MG N and 206.92 MG N and 170.57 MG N and 41.21 MG N and 392.42 MG N
- Nitrogen Balance, Difference Between Intake and Output ([3]; day 7, average of 7 rats): 137 MG N
- Nitrogen Balance, Difference Between Intake and Output ([3]; day 7, individual rat): 105.77 MG N and 52.38 MG N and -205.13 MG N and 366.51 MG N and 85.9 MG N and 206.76 MG N and 345.19 MG N
- nitrogen balance ([3]; in words, 7 days): positive nitrogen balances
- Daily Body Weight ([4]; day 0, average of 7 rats): 258 Grams
- Daily Body Weight ([4]; day 0, individual rat): 244 Grams and 228 Grams and 290 Grams and 250 Grams and 247 Grams and 281 Grams and 269 Grams
- Daily Body Weight ([4]; day 1, average of 7 rats): 262 Grams
- Daily Body Weight ([4]; day 1, individual rat): 238 Grams and 217 Grams and 329 Grams and 236 Grams and 244 Grams and 286 Grams and 284 Grams
- Daily Body Weight ([4]; day 2, average of 7 rats): 257 Grams
- Daily Body Weight ([4]; day 2, individual rat): 234 Grams and 211 Grams and 298 Grams and 233 Grams and 248 Grams and 293 Grams and 281 Grams
- Daily Body Weight ([4]; day 3, average of 7 rats): 263 Grams
- Daily Body Weight ([4]; day 3, individual rat): 229 Grams and 209 Grams and 337 Grams and 231 Grams and 266 Grams and 282 Grams and 286 Grams
- Daily Body Weight ([4]; day 4, average of 7 rats): 259 Grams
- Daily Body Weight ([4]; day 4, individual rat): 232 Grams and 207 Grams and 315 Grams and 226 Grams and 246 Grams and 295 Grams and 291 Grams
- Daily Body Weight ([4]; day 5, average of 7 rats): 251 Grams
- Daily Body Weight ([4]; day 5, individual rat): 232 Grams and 212 Grams and 278 Grams and 222 Grams and 240 Grams and 279 Grams and 294 Grams
